# Results taken from US20260000601A1, “Anti-Carbonylation Composition And Method Of Protecting Keratin Materials From Carbonylation Stimuli By Using Compositions Including Polylysines” (ELC Management LLC, priority 2022, published 2026).
# Test system: Bovine Serum Albumin (BSA)
# Assay: In vitro anti-carbonylation efficacy test (acrolein-induced carbonylation of BSA, Protein Carbonyl Assay Kit)
# Conditions: BSA + acrolein in PBS, 37° C. overnight; for % inhibition of carbonylation (average): blank = 0%; for Percentage of protein carbonylation level (average): blank = 100%
# [1] = agent working concentration 0.005%
# [2] = agent working concentration 0.05%
# Description: This assay provides an in vitro method to determine how an anti-carbonylation agent/composition affects the extent of protein carbonylation. With deionized water, the anti-carbonylation agent/composition to be tested was made into a 1% solution, Bovine Serum Albumin (BSA) was made into a 10 mg/mL solution, and Acrolein was made into a 10 mM solution. Then, in a 1.5 mL centrifuge tube, according to the content in Table 1, BSA (10 mg/mL), anti-carbonylation agent/composition (1%), Acrolein (10 mM) and Phosphate buffer solution (PBS) were added to the centrifuge tube. The sample containing only BSA and PBS served as a baseline, and the sample containing BSA, Acrolein and PBS served as a blank. The final liquid volume in each centrifuge tube was 1.0 mL. Each group contained three replicate samples, and all samples were placed at 37° C. overnight.
# The protein carbonyl content in the above samples was detected by using the Protein Carbonyl Assay Kit of Nanjing Jiancheng Bioengineering Institute. The detection methods are as follows: take 0.1 mL of sample into the assay tube, then add 0.4 mL of reagent 3 in the kit, vortex to mix for 1 min, and react at 37° C. for 30 min in the dark. Add 0.5 mL of reagent 5 in the kit, vortex and mix for 1 min, centrifuge at 12,000 r/min for 10 min at 4° C., discard the supernatant, and leave the pellet. Add 1.0 mL of anhydrous ethanol and ethyl acetate (1:1) mixed solution, vortex to mix for 1 min, centrifuge at 12,000 r/min for 10 min at 4° C., discard the supernatant, leave the precipitate, and repeat the above steps four times. Add 1.25 mL of reagent VI in the kit, mix well, place it in 37° C. for 15 min, vortex to mix, dissolve all the precipitates, and centrifuge at 12,000 r/min for 15 minutes. Take the supernatant in a quartz cuvette with a light diameter of 0.5 cm, adjust the zero with reagent six, and measure the absorbance value of each tube at 370 nm (ultraviolet). According to the formula, we can get the protein carbonyl content.
# The protein content of the samples was determined using Thermos's Micro BCA™ Protein Assay Kit. First, prepare Diluted Albumin (BSA) Standards (Working Range=20-750 μg/mL). Mix BCA Reagent A with Reagent B (Reagent A:Reagent B=50:1) to prepare working solution. Take 25 μL each of the protein standard at different dilution concentration and the protein sample, add them to the microplate. Add 200 μL of working solution to each well and mix well by shaking on a shaker for 30 s. The microplate was sealed and incubated at 37° C. for 30 min. Cool the microplate to room temperature and measure the absorbance of the sample at a wavelength of 562 nm. The corrected absorbance value is the absorbance value of the blank sample subtracted from the readings of each standard and sample. The protein concentration was read against a standard curve prepared with known amounts of BSA. Referring to the standard curve, according to the corrected absorbance value of each protein sample, read the protein concentration of each sample within the linear range of the standard curve. Calculate the amount of protein in the original sample based on the sample volume and dilution.
# The anti-carbonylation capability of each anti-carbonylation agents/composition can be obtained by dividing the carbonylation degree of the sample by the BSA protein content.
Compound,% inhibition of carbonylation (average) [1] [%],Percentage of protein carbonylation level (average) [1] [%],% inhibition of carbonylation (average) [2] [%],Percentage of protein carbonylation level (average) [2] [%]
NCCCC[C@H](N)C(=O)O [L-Lysine],21,79,40,60
"Dendritic PL: dendritic polylysine, DendriClear from Lucas Meyer, Mw = 6171",,43,,19
